The text below walks through data of patent US7776862B2, “Pyridyl and phenyl substituted piperazine-piperidines with CXCR3 antagonist activity” (Schering Corporation, priority 2005, dated 2010).

Structures are written as SMILES. A value given as a limit tells only on which side of the number the result lay.

This test has as its target T1, human CXCR3 (N-delta 4) (Homo sapiens, UniProt P49682).
T1 construct: CD8 leader; Flag tag; expressed in transfected cells; membranes used
T1 sequence (P49682 5-368 limits assumed): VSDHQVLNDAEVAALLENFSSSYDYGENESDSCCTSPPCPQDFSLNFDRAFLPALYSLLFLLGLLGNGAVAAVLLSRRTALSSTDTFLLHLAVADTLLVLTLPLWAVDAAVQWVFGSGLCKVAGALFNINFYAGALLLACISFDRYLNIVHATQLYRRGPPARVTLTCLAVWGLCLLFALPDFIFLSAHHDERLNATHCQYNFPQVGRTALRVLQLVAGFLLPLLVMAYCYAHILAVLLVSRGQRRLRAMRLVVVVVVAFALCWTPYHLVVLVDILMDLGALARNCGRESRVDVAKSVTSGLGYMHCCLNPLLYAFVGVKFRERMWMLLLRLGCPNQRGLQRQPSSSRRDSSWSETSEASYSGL
The test can be described thus: Human CXCR3 (N-delta 4) scintillation proximity assay (SPA), [125I] IP-10 binding. Particulars: IC50 rating; Ba/F3-hCXCR3 (N-delta 4) membranes, 25 pM [125I] IP-10. The text has this:
The inventive compounds can readily be evaluated to determine activity at the CXCR3 receptors by known methods, such as, for example, development of a human CXCR3 (N-delta 4) Binding Assay.
Cloning and expression of human CXCR3 (N-delta 4):
The DNA encoding human CXCR3 was cloned by PCR using human genomic DNA (Promega, Madison, Wis.) as a template. The PCR primers were designed based on the published sequence of human orphan receptor GPR9 (1) with incorporated restriction sites, a Kozak consensus sequence, CD8 leader and Flag tag. The PCR product was subcloned into the mammalian expression vector pME18Sneo, a derivative of the SR-alpha expression vector (designated as pME18Sneo-hCXCR3 (N-delta 4).
IL-3-dependent mouse pro-B cells Ba/F3 were transfected by electroporation in 0.4 ml Dulbecco's PBS containing 4×10^6 cells with 20 μg of pME18Sneo-hCXCR3 (N-delta 4) plasmid DNA. Cells were pulsed at 400 Volts, 100 OHMs, 960 μFd. The transfected cells were under selection with 1 mg/ml G418 (Life Technologies, Gaithersburg, Md.). […] IP-10 (NEN Life Science Products, Boston, Mass.).
Preparation of Ba/F3-hCXCR3 (N-delta 4) membranes:
Ba/F3 cells expressing human CXCR3 (N-delta 4) were pelleted and resuspended in the lysis buffer containing 10 mM HEPES, pH 7.5 and Complete® protease inhibitors (1 tablet per 100 ml) (Boehringer Mannheim, Indianapolis, Ind.) at a cell density of 20×10^6 cells per ml. […] Large cellular debris was removed by centrifugation at 1,000×g. Cell membrane in the supernatant was sedimented at 100,000×g. The membrane was resuspended in the lysis buffer supplemented with 10% sucrose and stored at −80° C. Total protein concentration of the membrane was determined by BCA method from Pierce (Rockford, Ill.).
Human CXCR3 (N-delta 4) scintillation proximity assay (SPA):
The beads were spun down, washed once, resuspended in the binding buffer and transferred to a 96-well Isoplate (Wallac, Gaithersburg, Md.). […] IP-10 with tested compounds in a series of titration were added to start the reaction.
(In general: In a scintillation proximity assay essentially only radioactivity close to the scintillant gives light.)
The molecule `O=C(NCc1cc(Cl)cc(Cl)c1)c1cnc(N2CCN(C3CCN(Cc4ccc(Cl)cc4)CC3)CC2)c(Cl)c1` [compound 52] showed an IC50 above 100 nM.

With `O=C(NCc1ccccc1)c1cnc(N2CCN(C3CCN(Cc4ccc(F)c(F)c4)CC3)CC2)c(Cl)c1` [compound 53], the IC50 is above 100 nM.

Turning to `COc1ccc(CN2CCC(N3CCN(c4ncc(C(=O)NCc5cccc(Cl)c5)cc4Cl)CC3)CC2)cc1` [compound 54], the half-maximal inhibitory concentration (IC50) was above 100 nM.

The molecule `O=C(NCc1ccc(F)cc1)c1cnc(N2CCN(C3CCN(Cc4ccc(F)cc4)CC3)CC2)c(Cl)c1` [compound 55] showed a half-maximal inhibitory concentration (IC50) above 100 nM.

The molecule `COc1ccc(CN2CCC(N3CCN(c4ncc(C(=O)NCc5ccc(F)cc5F)cc4Cl)CC3)CC2)cc1` [compound 56] showed an IC50 above 100 nM.

As to `O=C(NCc1cccc(Cl)c1)c1cnc(N2CCN(C3CCN(Cc4ccc(F)cc4)CC3)CC2)c(Cl)c1` [compound 57], the IC50 is above 100 nM.

In the case of `O=C(NCc1ccc(F)cc1F)c1cnc(N2CCN(C3CCN(Cc4ccc(F)cc4)CC3)CC2)c(Cl)c1` [compound 58], the IC50 is above 100 nM.

In turn, `O=C(NCc1ccc(Cl)cc1Cl)c1cnc(N2CCN(C3CCN(Cc4ccc(F)cc4F)CC3)CC2)c(Cl)c1` [compound 59] showed a 50% inhibitory concentration (IC50) above 100 nM.

On to `O=C(NCCOc1ccccc1)c1cnc(N2CCN(C3CCN(Cc4ccc(F)cc4)CC3)CC2)c(Cl)c1` [compound 60], for which the IC50 was above 100 nM.

In turn, `N#Cc1ccc(CN2CCC(N3CCN(c4ncc(C(=O)NCc5cccc(F)c5)cc4Cl)CC3)CC2)cc1` [compound 61] returned an IC50 above 100 nM.

`O=C(NCc1ccc(F)c(F)c1)c1cnc(N2CCN(C3CCN(Cc4ccc(Br)cc4F)CC3)CC2)c(Cl)c1` [compound 62] yielded an IC50 above 100 nM.

For the molecule `COc1ccc(CN2CCC(N3CCN(c4ncc(C(=O)NCc5ccc(Cl)cc5Cl)cc4Cl)CC3)CC2)cc1` [compound 63], the IC50 is above 100 nM.

For `N#Cc1ccc(C(=O)N2CCC(N3CCN(c4ncc(C(=O)NCc5ccc(Cl)c(Cl)c5)cc4Cl)CC3)CC2)cc1` [compound 64], the concentration for half-maximal inhibition (IC50) is above 100 nM.

In the case of `O=C(NCc1ccc(Cl)c(Cl)c1)c1cnc(N2CCN(C3CCN(Cc4ccc(Br)cc4F)CC3)CC2)c(Cl)c1` [compound 65], the half-maximal inhibitory concentration (IC50) was above 100 nM.

Molecule `O=C(NCc1ccc(C(F)(F)F)cc1)c1cnc(N2CCN(C3CCN(Cc4ccc(F)cc4)CC3)CC2)c(Cl)c1` [compound 66] gave an IC50 above 100 nM.

Consider `O=C(NCc1ccc(Br)cc1)c1cnc(N2CCN(C3CCN(Cc4ccc(F)cc4F)CC3)CC2)c(Cl)c1` [compound 67], for which the IC50 was above 100 nM.

The molecule `N#Cc1ccc(C(=O)N2CCC(N3CCN(c4ncc(C(=O)NCc5ccc(Br)cc5)cc4Cl)CC3)CC2)cc1` [compound 68] displayed a half-inhibitory concentration (IC50) above 100 nM.

For `N#Cc1ccc(CN2CCC(N3CCN(c4ncc(C(=O)NCc5ccc(Cl)cc5Cl)cc4Cl)CC3)CC2)cc1` [compound 69], the half-inhibitory concentration (IC50) was above 100 nM.

Regarding `N#Cc1ccc(C(=O)N2CCC(N3CCN(c4ncc(C(=O)NCc5ccc(C(F)(F)F)cc5)cc4Br)CC3)CC2)cc1` [compound 70], the 50% inhibitory concentration (IC50) is above 100 nM.

`O=C(NCc1ccccc1)c1cnc(N2CCN(C3CCN(Cc4ccc(Cl)c(F)c4)CC3)CC2)c(Cl)c1` [compound 71]: the IC50 was above 100 nM.

`O=C(NCc1ccccc1)c1cnc(N2CCN(C3CCN(Cc4ccc(Cl)cc4)CC3)CC2)c(Cl)c1` [compound 72] gave a half-maximal inhibitory concentration (IC50) above 100 nM.

Molecule `O=C(NCc1ccc(C(F)(F)F)cc1)c1cnc(N2CCN(C3CCN(Cc4ccc(Cl)c(F)c4)CC3)CC2)c(Cl)c1` [compound 73] showed a 50% inhibitory concentration (IC50) above 100 nM.

In the case of `CC(c1ccc([N+](=O)[O-])cc1)N1CCC(N2CCN(c3ncc(C(=O)NCc4ccc(Cl)c(Cl)c4)cc3Cl)CC2)CC1` (centres unmarked) [compound 74], the concentration for half-maximal inhibition (IC50) is above 100 nM.

Turning to `O=C(NCc1ccccc1)c1cnc(N2CCN(C3CCN(Cc4ccc([N+](=O)[O-])cc4)CC3)CC2)c(Cl)c1` [compound 75], the half-maximal inhibitory concentration (IC50) is above 100 nM.

With `CC(c1ccc([N+](=O)[O-])cc1)N1CCC(N2CCN(c3ncc(C(=O)NCc4ccc(F)c(F)c4)cc3Cl)CC2)CC1` (centres unmarked) [compound 76], the half-maximal inhibitory concentration (IC50) was above 100 nM.

Molecule `O=C(NCc1cc(Cl)cc(Cl)c1)c1cnc(N2CCN(C3CCN(Cc4ccc(F)cc4)CC3)CC2)c(Cl)c1` [compound 77] registered a 50% inhibitory concentration (IC50) above 100 nM.

The molecule `O=C(NCc1cc(Cl)cc(Cl)c1)c1cnc(N2CCN(C3CCN(Cc4ccc(F)c(F)c4)CC3)CC2)c(Cl)c1` [compound 78] returned a half-maximal inhibitory concentration (IC50) above 100 nM.

Regarding `O=C(NCc1ccc(F)cc1F)c1cnc(N2CCN(C3CCN(Cc4ccc(Br)cc4)CC3)CC2)c(Cl)c1` [compound 79], the IC50 was above 100 nM.

The molecule `O=C(NCc1cc(Cl)cc(Cl)c1)c1cnc(N2CCN(C3CCN(Cc4ccc(Cl)c(F)c4)CC3)CC2)c(Cl)c1` [compound 80] gave an IC50 above 100 nM.

As for `N#Cc1ccc(C(=O)N2CCC(N3CCN(c4ncc(C(=O)NCc5ccc(Cl)cc5F)cc4Cl)CC3)CC2)cc1` [compound 81], the IC50 is above 100 nM.

Molecule `O=C(NCCCc1ccccc1)c1cnc(N2CCN(C3CCN(Cc4ccc(Cl)cc4)CC3)CC2)c(Cl)c1` [compound 82] gave an IC50 above 100 nM.

Take `N#Cc1ccc(C(=O)N2CCC(N3CCN(c4ncc(C(=O)NCc5ccc(F)c(Cl)c5)cc4Cl)CC3)CC2)cc1` [compound 83]: the IC50 is above 100 nM.

Molecule `O=C(NCc1cccc(Cl)c1)c1cnc(N2CCN(C3CCN(Cc4ccc(Cl)cc4)CC3)CC2)c(Cl)c1` [compound 84] displayed an IC50 above 100 nM.

Regarding `O=C(NCc1ccc(C(F)(F)F)cc1)c1cnc(N2CCN(C3CCN(Cc4ccc(Cl)cc4)CC3)CC2)c(Cl)c1` [compound 85], the half-inhibitory concentration (IC50) was above 100 nM.

In the case of `N#Cc1ccc(CN2CCC(N3CCN(c4ncc(C(=O)NCc5ccc(F)cc5F)cc4Cl)CC3)CC2)cc1` [compound 86], the IC50 is above 100 nM.

`O=C(NCc1ccc(Cl)cc1)c1cnc(N2CCN(C3CCN(Cc4ccc(F)cc4F)CC3)CC2)c(Cl)c1` [compound 87]: the IC50 was above 100 nM.

As to `O=C(NCc1ccc(Cl)cc1F)c1cnc(N2CCN(C3CCN(Cc4ccc(F)cc4F)CC3)CC2)c(Cl)c1` [compound 88], the half-maximal inhibitory concentration (IC50) was above 100 nM.

With `O=C(NCc1cc(Cl)cc(Cl)c1)c1cnc(N2CCN(C3CCN(Cc4ccc([N+](=O)[O-])cc4)CC3)CC2)c(Cl)c1` [compound 89], the IC50 is above 100 nM.

Turning to `O=C(NCc1ccc(Cl)c(Cl)c1)c1cnc(N2CCN(C3CCN(Cc4ccc(F)cc4F)CC3)CC2)c(Cl)c1` [compound 90], the IC50 was above 100 nM.

As to `O=C(NCc1cccc(F)c1)c1cnc(N2CCN(C3CCN(Cc4ccc(F)c(F)c4)CC3)CC2)c(Cl)c1` [compound 91], the IC50 is above 100 nM.

With `O=C(NCc1ccc(C(F)(F)F)cc1)c1cnc(N2CCN(C3CCN(Cc4ccc(F)c(F)c4)CC3)CC2)c(Cl)c1` [compound 92], the half-inhibitory concentration (IC50) was above 100 nM.

In turn, `O=C(NCc1ccc(Cl)cc1F)c1cnc(N2CCN(C3CCN(Cc4ccc(Cl)c(F)c4)CC3)CC2)c(Cl)c1` [compound 93] returned an IC50 above 100 nM.

`O=C(NCc1cccc(F)c1)c1cnc(N2CCN(C3CCN(Cc4ccc([N+](=O)[O-])cc4)CC3)CC2)c(Cl)c1` [compound 94] had an IC50 of 25 to 100 nM.

In turn, `O=C(NCc1cccc(F)c1)c1cnc(N2CCN(C3CCN(Cc4ccc(Cl)cc4)CC3)CC2)c(Cl)c1` [compound 95] gave an IC50 of 25 to 100 nM.

For `O=C(NCc1ccc(F)c(F)c1)c1cnc(N2CCN(C3CCN(Cc4ccc(F)cc4F)CC3)CC2)c(Cl)c1` [compound 96], the IC50 was 25 to 100 nM.

As to `O=C(NCc1ccc(F)cc1F)c1cnc(N2CCN(C3CCN(Cc4ccc(Cl)cc4)CC3)CC2)c(Cl)c1` [compound 97], the half-maximal inhibitory concentration (IC50) lay in the range of 25 to 100 nM.

Molecule `O=C(NCc1ccc(C(F)(F)F)cc1)c1cnc(N2CCN(C3CCN(Cc4ccc([N+](=O)[O-])cc4)CC3)CC2)c(Cl)c1` [compound 98] came in with an IC50 of 25 to 100 nM.

For the molecule `O=C(NCc1ccc(Br)cc1)c1cnc(N2CCN(C3CCN(Cc4ccc(F)c(F)c4)CC3)CC2)c(Cl)c1` [compound 99], the IC50 was 25 to 100 nM.

`O=C(NCc1cccc(F)c1)c1cnc(N2CCN(C3CCN(Cc4ccc(Br)cc4)CC3)CC2)c(Cl)c1` [compound 100]: the half-inhibitory concentration (IC50) was in the range of 25 to 100 nM.

As to `N#Cc1ccc(C(=O)N2CCC(N3CCN(c4ncc(C(=O)NCc5ccc(Cl)cc5)cc4Cl)CC3)CC2)cc1` [compound 101], the half-inhibitory concentration (IC50) lay in the range of 25 to 100 nM.

For orientation: IC50 means the concentration that inhibits the measured activity by half.
